The test system of series [1] is human red blood cells (hRBCs). Kind of series: Hemolysis assay. It is filed as cell-based. Here is the method: Figure 2 (A) Hemolytic activity of the engineered peptides against human red blood cells (hRBCs). The hRBCs were incubated with equal amounts of the respective peptides dissolved in PBS for 1 h at 37 °C. (B) Cytotoxicity of the engineered peptides against RAW264.7. […] Data shown are three independent experiments.
The hemolytic activity of the peptides is determined by measuring the amount of hemoglobin released during the lysis of human erythrocytes at different concentrations of AMPs. Briefly, fresh, healthy human red blood cells (hRBCs) were collected and then washed three times with phosphate-buffered saline (PBS) buffer (pH 7.2) and centrifuged at 1000× g for 5 min. Each 50 µL sample of hRBCs was incubated with 50 µL of the respective peptide dissolved in PBS in a well of a 96-well plate for 1 h at 37 °C. After incubation, the samples were centrifuged at 1000× g for 5 min and the supernatants (50 μL) were transferred to a new 96-well microplate. The release of hemoglobin was measured by monitoring the OD at 570 nm (Tecan, Salzburg, Austria). Negative (hRBCs without AMP treatment) and positive (hRBCs treated with 0.1% TritonX-100) controls were used. The concentration of peptide that caused 5% hemolysis was considered the minimal hemolysis concentration (MHC). The test was repeated three times. The percent hemolysis was calculated using the following formula:(2) Percent hemolysis=A−A0/At−A0× 100% A0 and At represent 0% and 100% hemolysis as measured in 10 mM PBS and 0.2% Triton X-100, respectively.

Series [2] concerns Gram-positive and Gram-negative bacteria. Kind of series: Antimicrobial assay (MIC), statement over all strains. Conditions: all strains tested. Format: cell-based. On the procedure: (§1) Briefly, the bacteria were incubated overnight at 37 °C with constant shaking at 220 rpm, then were transferred to new MH broth (MHB) medium until they reached the logarithmic phase of growth. The bacteria were then diluted to 10^5 (CFU)/mL in MHB. The peptides were dissolved and diluted in 0.01% acetic acid and 0.2% bovine serum albumin (BSA) at various concentrations (0.5–128 μM) in each well of sterile 96-well plates and incubated for 20 h at 37 °C. […] The test was repeated three times.

A further series relates to MRSA43300. Kind of series: microbe, parasite or virus in culture. Format: cell-based, Methicillin-resistant Staphylococcus aureus. Here is the method: (§2) The test strains, including Gram-negative E. coli ATCC25922, E. coli ATCC 1005, S. typhimurium C7731, P. aeruginosa ATCC 27853, S. Typhimurium 14028, Gram-positive S. aureus ATCC29213, S. aureus ATCC 25923, S. epidermidis ATCC 12228 and S. aureus 43300, were obtained from the School of Veterinary Medicine, Northeast Agricultural University (Harbin, China).
as §1

Series [3] relates to all the 9 bacteria tested. Kind of series: Geometric mean of MICs, all 9 bacteria. Conditions: for tGM, geometric mean of the MICs against all the 9 bacteria: all 9 bacteria tested. It is filed as cell-based. On the procedure: as §1
The subject of series [4] is gram-positive strains tested. In words: organism not typed. It is filed as cell-based. Conditions: for pGM (+), geometric mean of the MICs against gram-positive strains: 20 h. Here is the method:
as §1

Another series concerns S. aureus 25923. In words: microbe, parasite or virus in culture. It is filed as cell-based, Staphylococcus aureus. On the procedure:
as §2, §1

The next series concerns S. aureus 29213. Kind of series: microbe, parasite or virus in culture. It is filed as cell-based, Staphylococcus aureus. Here is the method: as §2, §1
For another series, the system named is P. aeruginosa 27853. In words: microbe, parasite or virus in culture. It is filed as cell-based. As to conditions: read-out: MIC. On the procedure: as §2, §1
The test system of a further series is S. epidermidis 12228. Kind of series: microbe, parasite or virus in culture. It is filed as cell-based. On the procedure:
as §2, §1

For a further series, the system named is S. typhimurium 7731. In words: microbe, parasite or virus in culture. It is filed as cell-based. Here is the method:
as §2, §1

Another series deals with S. typhimurium 14028. Kind of series: microbe, parasite or virus in culture. Format: cell-based. Here is the method:
as §2, §1

The conditions of series [5]: RP-HPLC used as measure of hydrophobicity; 4.6 mm × 250 mm Venusil MP C18-5 column, 220 nm, linear acetonitrile gradient 15% to 45% in 30 min, 0.1% trifluoroacetic acid, 1 mL/min. An excerpt:
In this experiment, cyclic, linear and D-proline antimicrobial peptides were designed based on the IR-rich template sequence (IR)nP(IR)nP (n = 1, 2 and 3). […] The […] molecular weights of the peptides were identified using mass spectrometry. […] The hydrophobicity of the peptides in solution is dependably mirrored by the HPLC retention times.

Another series relates to E. coli UB 1005. Kind of series: microbe, parasite or virus in culture. Format: cell-based, Escherichia coli. Here is the method:
as §2, §1

The subject of a further series is E. coli 25922. Kind of series: microbe, parasite or virus in culture. It is filed as cell-based, Escherichia coli. On the procedure:
as §2, §1

Series [6] deals with gram-negative strains tested. Kind of series: Geometric mean of MICs, gram-negative strains. Format: cell-based. As to conditions: 5 gram-negative strains; >128 apparently counted as 256; read-out: nGM (–), geometric mean of the MICs against gram-negative strains. Here is the method:
as §1

The subject of series [7] is bacteria versus human red blood cell. In words: Selectivity index (MHC5/GM). As to conditions: 256 μM used for MHC5 when no hemolysis at 128 μM. Here is the method:
To investigate the cell selectivity of novel antimicrobials, the total selectivity index (TSI) was calculated as the ratio of the minimal hemolysis concentration (MHC) to the geometric mean (GM) of the MIC values (Table 2).

In brackets after ≈: the same amount, converted by molar mass. Read-outs that look alike come from different tables or passages of the source. Where a SMILES comes first, the peptide text is derived from it. Where no end group is shown, it is not given here.

`CC[C@H](C)[C@@H]1NC(=O)[C@@H]2CCCN2C(=O)[C@H](CCCNC(=N)N)NC(=O)[C@H]([C@@H](C)CC)NC(=O)[C@@H]2CCCN2C(=O)[C@H](CCCNC(=N)N)NC1=O` [OIR1] (cyclo(IRPIRP)): the “MHC5, minimum hemolytic concentration that induced ≥5% hemolysis” value in series [1] (red cells of human, 1 h) is given as more than 128 µM. For the same compound, the “MIC in the presence of Gram-positive and Gram-negative bacteria” value in series [2] is recorded as “greater than 128 μM”. Besides, the MIC in the series with MRSA43300 (20 h) is given as more than 128 µM; with S. aureus 25923 (25923, 20 h), more than 128 µM; against S. aureus 29213 (29213, 20 h), more than 128 µM; in the series on P. aeruginosa 27853 (27853, 20 h) it was more than 128 µM; in the series with S. epidermidis 12228 (12228, 20 h), more than 128 µM; with S. typhimurium 7731 (7731, 20 h), more than 128 µM. In addition, the MIC with S. typhimurium 14028 (14028, 20 h) is more than 128 µM; in the series on E. coli UB 1005 (UB 1005, 20 h) it was more than 128 µM; in the series with E. coli 25922 (25922, 20 h), more than 128 µM; in [6], 256 µM (≈ 188 µg/mL). In addition, in series [3], the “tGM, geometric mean of the MICs against all the 9 bacteria” value (“tGM, geometric mean of the MICs” for short) was found to be 256 µM. Moreover, the “pGM (+), geometric mean of the MICs against gram-positive strains” value (from here on “pGM (+), geometric mean of the MICs”) in series [4] is listed as 256 µM. Besides, the “RT (retention time)” value in [5] came to 10.32 min.
In the case of `CC1(C)S[C@@H]2[C@H](NC(=O)Cc3ccccc3)C(=O)N2[C@H]1C(=O)O` [PS, Penicillin Sodium, reference compound], the “MHC5, minimum hemolytic concentration that induced ≥5% hemolysis” value in [1] (human red blood cells, PBS, 1 h at 37 °C, OD 570 nm, repeated three times) is given as more than 128 µM. Besides, the MIC in the series with MRSA43300 (Staphylococcus aureus, MRSA43300, MHB, 10^5 CFU/mL, 20 h 37 °C, repeated three times) was found to be 32 µM; in [3] (read-out: tGM, geometric mean of the MICs against all the 9 bacteria), 18.7 µM; in [4] (4 gram-positive strains, >128 apparently counted as 256, read-out: pGM (+), geometric mean of the MICs against gram-positive strains), 13.5 µM; against S. aureus 25923 (Staphylococcus aureus, S. aureus 25923, MHB, 10^5 CFU/mL, 20 h 37 °C, repeated three times), 32 µM; in the series on S. aureus 29213 (Staphylococcus aureus, S. aureus 29213, MHB, 10^5 CFU/mL, 20 h 37 °C, repeated three times), 64 µM; with P. aeruginosa 27853 (Pseudomonas aeruginosa, P. aeruginosa 27853, MHB, 10^5 CFU/mL, 20 h 37 °C, repeated three times) it was 128 µM. Also, the MIC amounted to 0.5 µM in the series on S. epidermidis 12228 (Staphylococcus epidermidis, S. epidermidis 12228, MHB, 10^5 CFU/mL, 20 h 37 °C, repeated three times); 0.5 µM in the series with S. typhimurium 7731 (Salmonella enterica, S. typhimurium 7731, MHB, 10^5 CFU/mL, 20 h 37 °C, repeated three times); 16 µM in the series on S. typhimurium 14028 (Salmonella enterica, S. typhimurium 14028, MHB, 10^5 CFU/mL, 20 h 37 °C, repeated three times); 64 µM with E. coli UB 1005 (Escherichia coli, UB1005, E. coli UB 1005, MHB, 10^5 CFU/mL, 20 h 37 °C, repeated three times); 128 µM with E. coli 25922 (Escherichia coli, E. coli 25922, MHB, 10^5 CFU/mL, 0.5–128 μM peptide, 20 h 37 °C, OD 492 nm, repeated three times); 24.3 µM in series [6]. The “GM MIC (range of Gram-negative and Gram-positive geometric means)” value in series [3] (Table 2) is 13.5 to 24.3 µM. In addition, the “nSI (–), selectivity index MHC5/GM (−)” value in [7] is on record as 10.5. In series [7], the “pSI (+), selectivity index MHC5/GM(+)” value came out at 19.0. Also, the “tSI, total selectivity index MHC5/TGM” value in series [7] is on record as 13.7.
Regarding `CC[C@H](C)[C@@H]1NC(=O)[C@H](CCCNC(=N)N)NC(=O)[C@H]([C@@H](C)CC)NC(=O)[C@@H]2CCCN2C(=O)[C@H](CCCNC(=N)N)NC(=O)[C@H]([C@@H](C)CC)NC(=O)[C@H](CCCNC(=N)N)NC(=O)[C@H]([C@@H](C)CC)NC(=O)[C@@H]2CCCN2C(=O)[C@H](CCCNC(=N)N)NC1=O` [OIR2] (cyclo(IRIRPIRIRP)), the “MHC5, minimum hemolytic concentration that induced ≥5% hemolysis” value in [1] (red cells of human, 1 h) is more than 128 µM. Further, the MIC is reported as more than 128 µM in the series on MRSA43300 (20 h); more than 128 µM in the series with S. aureus 25923 (25923, 20 h); more than 128 µM against S. aureus 29213 (29213, 20 h); more than 128 µM in the series with P. aeruginosa 27853 (27853, 20 h); more than 128 µM in the series on S. epidermidis 12228 (12228, 20 h); more than 128 µM in the series with S. typhimurium 7731 (7731, 20 h). The MIC against S. typhimurium 14028 (14028, 20 h) is listed as more than 128 µM; in the series on E. coli UB 1005 (UB 1005, 20 h), 64 µM (≈ 81.4 µg/mL); in the series on E. coli 25922 (25922, 20 h), 64 µM (≈ 81.4 µg/mL); in series [6] it was 147.0 µM (≈ 187 µg/mL). Also, in [3], the “tGM, geometric mean of the MICs” value came out at 188.1 µM. In addition, the “pGM (+), geometric mean of the MICs” value in [4] was determined as 256 µM. In addition, the “RT (retention time)” value in series [5] is listed as 10.66 min.
IRPIRP [IR1]: the “MHC5, minimum hemolytic concentration that induced ≥5% hemolysis” value in series [1] (red cells of human, 1 h) is on record as more than 128 µM. Besides, the “MIC in the presence of Gram-positive and Gram-negative bacteria” value in [2] is “greater than 128 μM”. Moreover, the MIC against MRSA43300 (20 h) is more than 128 µM; in the series with S. aureus 25923 (25923, 20 h), more than 128 µM; with S. aureus 29213 (29213, 20 h) it was more than 128 µM; with P. aeruginosa 27853 (27853, 20 h), more than 128 µM; in the series with S. epidermidis 12228 (12228, 20 h), more than 128 µM; in the series with S. typhimurium 7731 (7731, 20 h) it was more than 128 µM. For the same compound, the MIC in the series with S. typhimurium 14028 (14028, 20 h) was more than 128 µM; against E. coli UB 1005 (UB 1005, 20 h) it was more than 128 µM; in the series with E. coli 25922 (25922, 20 h), more than 128 µM; in series [6] it was 256 µM. In series [3], the “tGM, geometric mean of the MICs” value was determined as 256 µM. The “pGM (+), geometric mean of the MICs” value in series [4] is 256 µM.
